Structures can show the parent of a compound that is named as a salt. Where two headings read alike, the source gives them in different places.
What was measured:
[1] = target: T1, EGFr isolated from solubilised A431 cell membranes (Homo sapiens, UniProt P00533); test: Substrate phosphorylation assay, EGFr; type: biochemical; conditions: ATP and peptide at Km, 30 min, room temperature
T1 construct: EGFr isolated from solubilised A431 cell membranes; endogenous in cells; host or cells: A431 cell membranes (solubilised)
Protocol: (§1) The substrate phosphorylation assays use baculovirus expressed, recombinant constructs of the intracellular domains of c-erbB-2 and c-erbB-4 that are constitutively active and EGFr isolated from solubilised A431 cell membranes. The method measures the ability of the isolated enzymes to catalyse the transfer of the γ-phosphate from ATP onto tyrosine residues in a biotinylated synthetic peptide (Biotin-[…]. […] The reaction is stopped by the addition of EDTA (final concentration 0.15 mM) and a sample is transferred to a streptavidin-coated 96-well plate. The plate is washed and level of phosphotyrosine on the peptide is determined using a Europium-labelled antiphosphotyrosine antibody and quantified with a time-resolved fluorescence technique.

HB4a erbB-2 cells = test: Cell proliferation assay, HB4a transformed by over-expression of c-erbB-2; type: cell-based, human; conditions: read-out: Cell Proliferation HB4a erbB-2 IC50
Protocol: (§2) The cell proliferation assay uses an immortalised human breast epithelial cell line (HB4a) which has been transformed by over-expression of c-erbB-2. Growth of these cells in low serum is dependent upon the c-erbB-2 tyrosine kinase activity. The specificity of the effect of the test compounds on tyrosine kinase dependent growth over general toxicity is assessed by comparison to an HB4a cell line which has been transfected with ras. Cells are plated at 3000/well in 96-well plates in 0.1 ml medium and allowed to attach overnight, test compound is added in 0.1 ml medium, with a final concentration of 0.5% DMSO, and the plates incubated for 4 days at 37° C. The cells are then examined microscopically for evidence of morphological detransformation and cell mass is estimated by staining with methylene blue and measuring the absorbance at 620 nm. The results are shown in Table 1 below as the IC50 values in nM. Activity against a range of naturally occurring EGFr or c-erbB-2 over-expressing human tumour cell lines (BT474-breast, HN5-head and neck, N87-gastric and Calu3-lung) is assessed with selected compounds by the same methodology. The results are also shown in Table 1 below as the IC50 values in nM.

HB4a ras cells = test: Cell proliferation assay, HB4a transfected with ras (general toxicity comparison); type: cell-based, human; conditions: read-out: Cell Proliferation HB4a ras IC50
Protocol: as §2

[2] = target: T2, c-erbB-2 (baculovirus expressed recombinant intracellular domain) (Homo sapiens, UniProt P04626); test: Substrate phosphorylation assay, c-erbB-2; type: biochemical; conditions: ATP and peptide at Km, 30 min, room temperature
T2 construct: baculovirus expressed, recombinant constructs of the intracellular domains of c-erbB-2 and c-erbB-4 that are constitutively active; made in house
Protocol: as §1

BT474 cells = test: Cell proliferation assay, BT474 breast tumour cell line; type: cell-based, human; conditions: 4 days, methylene blue staining, read-out: Cell Proliferation BT474 IC50
Protocol: as §2

Calu3 cells = test: Cell proliferation assay, Calu3 lung tumour cell line; type: cell-based, human; conditions: 4 days, methylene blue staining, read-out: Cell Proliferation Calu3 IC50
Protocol: as §2

[3] = target: T3, c-erbB-4 (baculovirus expressed recombinant intracellular domain) (Homo sapiens, UniProt Q15303); test: Substrate phosphorylation assay, c-erbB-4; type: biochemical; conditions: ATP and peptide at Km, 30 min, room temperature
T3 construct: baculovirus expressed, recombinant constructs of the intracellular domains of c-erbB-2 and c-erbB-4 that are constitutively active; made in house
Protocol: as §1

HN5 cells = test: Cell proliferation assay, HN5 head and neck tumour cell line; type: cell-based; conditions: Homo sapiens, HN5, 96 h; 4 days, methylene blue staining; read-out: Cell Proliferation HN5 IC50
Protocol: as §2

[4] = 4 days, methylene blue staining
[5] = Homo sapiens, HB4a, 96 h, 4 days, methylene blue staining

T2 sequence (P04626 676-1255 limits assumed): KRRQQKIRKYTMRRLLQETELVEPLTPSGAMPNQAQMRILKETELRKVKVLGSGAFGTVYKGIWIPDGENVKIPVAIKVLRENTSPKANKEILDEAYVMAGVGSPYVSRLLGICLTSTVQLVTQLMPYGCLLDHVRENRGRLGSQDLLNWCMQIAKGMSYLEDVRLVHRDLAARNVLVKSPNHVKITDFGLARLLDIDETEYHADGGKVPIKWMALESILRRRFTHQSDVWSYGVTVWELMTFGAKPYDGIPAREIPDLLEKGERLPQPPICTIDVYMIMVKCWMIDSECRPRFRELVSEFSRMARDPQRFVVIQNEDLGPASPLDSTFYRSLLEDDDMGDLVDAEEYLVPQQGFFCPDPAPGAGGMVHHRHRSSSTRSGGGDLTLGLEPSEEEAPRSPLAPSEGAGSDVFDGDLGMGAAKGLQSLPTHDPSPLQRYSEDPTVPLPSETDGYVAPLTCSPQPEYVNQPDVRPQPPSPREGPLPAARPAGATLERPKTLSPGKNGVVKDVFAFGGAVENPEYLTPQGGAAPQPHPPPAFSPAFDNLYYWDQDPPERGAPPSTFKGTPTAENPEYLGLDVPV
T1 sequence (P00533 25-1210): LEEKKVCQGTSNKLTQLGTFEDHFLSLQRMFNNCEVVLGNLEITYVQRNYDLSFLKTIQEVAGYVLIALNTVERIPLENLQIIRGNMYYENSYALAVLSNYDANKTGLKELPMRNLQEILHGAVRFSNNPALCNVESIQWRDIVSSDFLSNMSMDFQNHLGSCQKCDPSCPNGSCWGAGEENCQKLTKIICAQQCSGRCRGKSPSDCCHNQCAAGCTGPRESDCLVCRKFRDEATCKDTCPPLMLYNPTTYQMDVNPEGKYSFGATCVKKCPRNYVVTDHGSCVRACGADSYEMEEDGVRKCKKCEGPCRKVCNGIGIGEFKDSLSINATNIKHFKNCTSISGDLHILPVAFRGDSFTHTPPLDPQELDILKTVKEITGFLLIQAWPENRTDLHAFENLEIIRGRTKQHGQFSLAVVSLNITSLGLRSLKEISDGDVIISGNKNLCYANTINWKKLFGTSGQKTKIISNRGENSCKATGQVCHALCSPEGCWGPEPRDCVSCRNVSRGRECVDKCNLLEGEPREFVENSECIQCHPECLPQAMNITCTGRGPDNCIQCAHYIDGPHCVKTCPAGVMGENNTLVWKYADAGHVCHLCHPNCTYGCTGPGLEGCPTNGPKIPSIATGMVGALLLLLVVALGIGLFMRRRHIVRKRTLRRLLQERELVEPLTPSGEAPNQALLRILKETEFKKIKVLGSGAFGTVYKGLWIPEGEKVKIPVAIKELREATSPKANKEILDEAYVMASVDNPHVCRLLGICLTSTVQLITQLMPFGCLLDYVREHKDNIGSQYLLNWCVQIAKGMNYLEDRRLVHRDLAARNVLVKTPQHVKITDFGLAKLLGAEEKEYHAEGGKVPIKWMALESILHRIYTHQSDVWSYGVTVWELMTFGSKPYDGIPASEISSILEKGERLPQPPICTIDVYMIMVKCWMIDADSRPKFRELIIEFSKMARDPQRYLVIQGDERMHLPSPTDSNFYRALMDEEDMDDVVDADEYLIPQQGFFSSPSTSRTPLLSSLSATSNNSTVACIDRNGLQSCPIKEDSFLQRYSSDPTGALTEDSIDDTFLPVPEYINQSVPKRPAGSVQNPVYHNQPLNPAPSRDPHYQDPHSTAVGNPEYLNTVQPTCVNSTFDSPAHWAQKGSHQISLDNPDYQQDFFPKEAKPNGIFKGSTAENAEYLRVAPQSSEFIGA
T3 sequence (Q15303 676-1308 limits assumed): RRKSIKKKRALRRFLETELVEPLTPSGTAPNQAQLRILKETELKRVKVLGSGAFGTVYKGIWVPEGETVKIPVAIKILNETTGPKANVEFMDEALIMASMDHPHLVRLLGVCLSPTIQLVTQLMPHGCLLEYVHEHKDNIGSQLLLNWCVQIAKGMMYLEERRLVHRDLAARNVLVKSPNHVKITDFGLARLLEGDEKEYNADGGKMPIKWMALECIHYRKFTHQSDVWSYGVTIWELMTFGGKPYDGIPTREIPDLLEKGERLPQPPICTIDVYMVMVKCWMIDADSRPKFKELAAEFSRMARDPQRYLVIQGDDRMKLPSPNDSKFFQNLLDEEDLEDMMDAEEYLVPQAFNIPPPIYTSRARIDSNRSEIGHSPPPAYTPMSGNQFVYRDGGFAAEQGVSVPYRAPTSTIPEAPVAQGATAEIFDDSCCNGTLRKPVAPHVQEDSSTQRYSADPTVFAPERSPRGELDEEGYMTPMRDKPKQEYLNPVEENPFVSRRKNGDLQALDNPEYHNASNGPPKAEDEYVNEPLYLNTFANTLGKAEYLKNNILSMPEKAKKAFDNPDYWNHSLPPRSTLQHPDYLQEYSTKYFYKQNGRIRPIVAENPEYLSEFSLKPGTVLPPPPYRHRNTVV

SMILES | IC50 [1] [nM] | IC50 [2] [nM] | IC50 [3] [nM] | IC50 (HB4a erbB-2 cells; [5]) [nM] | IC50 (HB4a ras cells; [5]) [nM] | other results
c1ccc(Cn2ncc3cc(Nc4ncnc5cnc(-n6cncn6)cc45)ccc32)cc1 [Example 21] | 54 | – | – | – | – | IC50 (HB4a erbB-2 cells; [4]): 500 nM; IC50 (HB4a ras cells; [4]): 18000 nM
CN(C)c1cc2c(Nc3ccc4c(cnn4Cc4ccc(F)cc4)c3)ncnc2cn1 [Example 17, N4-(4-Fluoro-benzyl)-1H-indazol-5-yl)-N6,N6-dimethyl-pyrido[3,4-d]pyrimidine-4,6-diamine Hydrochloride] | – | 250 | – | – | – | IC50 (HB4a erbB-2 cells; [4]): 490 nM; IC50 (HB4a ras cells; [4]): 7600 nM; IC50 (BT474 cells): 550 nM; IC50 (Calu3 cells): 7000 nM
CN(C)c1cc2c(Nc3ccc4c(S(=O)(=O)c5ccccc5)c[nH]c4c3)ncnc2cn1 [Example 19, Hydrochloride] | 540 | 6 | 130 | – | – | IC50 (HB4a erbB-2 cells; Homo sapiens, HB4a, 96 h): 1200 nM; IC50 (HB4a ras cells; Homo sapiens, HB4a, 96 h): 33000 nM
Clc1cc2c(Nc3ccc4c(cnn4Cc4ccccc4)c3)ncnc2cn1 [Example 1, (1-Benzyl-1H-indazol-5-yl)-(6-chloro-pyrido[3,4-d]pyrimidin-4-yl)-amine Hydrochloride] | – | 27 | 48 | – | – | –
c1ccc(Cn2ncc3cc(Nc4ncnc5cnc(-n6nccn6)cc45)ccc32)cc1 [Example 22] | 22 | – | – | – | – | IC50 (HB4a erbB-2 cells; [4]): 1700 nM; IC50 (HB4a ras cells; [4]): 18000 nM
c1ccc(Cn2ncc3cc(Nc4ncnc5cnc(-n6ccnc6)cc45)ccc32)cc1 [Example 20, (1-Benzyl-1H-indazol-5-yl)-(6-imidazol-1-yl-pyrido[3,4-d]pyrimidin-4-yl)-amine] | 4 | 33 | – | 470 | 14000 | –
CN(C)c1cc2c(Nc3ccc4c(ccn4Cc4ccccc4)c3)ncnc2cn1 [Example 6, N4-(1-Benzyl-1H-indol-5-yl)-N6,N6-dimethyl-pyrido[3,4-d]pyrimidine-4,6-diamine] | – | 11 | 150 | – | – | IC50 (HN5 cells): 320 nM
c1ccc(Cn2ncc3cc(Nc4ncnc5cnccc45)ccc32)cc1 [Example 4, (1-Benzyl-1H-indazol-5-yl)-(pyrido[3,4-d]pyrimidin-4-yl)-amine] | – | 120 | 1300 | 3900 | 13000 | –
CN(C)c1cc2c(Nc3ccc4c(cnn4Cc4ccccc4F)c3)ncnc2cn1 [Example 15, N4-(1-(2-Fluoro-benzyl)1H-indazol-5-yl)-N6,N6-dimethyl-pyrido[3,4-d]pyrimidine-4.6-diamine Hydrochloride] | – | 7 | 4 | 4 | 14000 | –
CN(C)c1cc2c(Nc3ccc4c(cnn4Cc4ccccn4)c3)ncnc2cn1 [Example 12, N6,N6-Dimethyl-N4-(1-pyridin-2-ylmethyl-1H-indazol-5-yl)-pyrido[3,4-d]pyrimidine-4,6diamine Hydrochloride] | 77 | 1 | 3 | 170 | 32000 | –
CN(CCO)c1cc2c(Nc3ccc4c(cnn4Cc4ccccc4)c3)ncnc2cn1 [Example 3] | – | 7 | 23 | 140 | 33000 | IC50 (Calu3 cells; Homo sapiens, Calu-3, 96 h): 1800 nM
Cc1nn(Cc2ccccc2)c2ccc(Nc3ncnc4cnc(N(C)C)cc34)cc12 [Example 14, N4-(1-Benzyl-3-methyl-1H-indazol-5-yl)-N6,N6-dimethyl-pyrido[3,4-d]pyrimidine-4,6-diamine] | 830 | 430 | 1500 | 950 | 7900 | –
CN(C)c1cc2c(Nc3ccc4c(ccn4S(=O)(=O)c4ccccc4)c3)ncnc2cn1 [Example 18, N4-(1-Benzenesulphonyl-1H-indol-5-yl)-N6,N6-dimethyl-pyrido[3,4-d]pyrimidine-4,6-diamine Hydrochloride] | 290 | 98 | 1700 | 21 | 19000 | IC50 (HN5 cells): 440 nM
CN(C)c1cc2c(Nc3ccc4c(cnn4Cc4cccnc4)c3)ncnc2cn1 [Example 13, N6,N6-Dimethyl-N4-(1-pyridin-3-ylmethyl-1H-indazol-5-yl)-pyrido[3,4-d]pyrimidine-4,6-diamine Hydrochloride] | 370 | 50 | 2400 | 240 | 28000 | –

The next lines start with results.

IC50 [1] [nM] | IC50 [2] [nM] | IC50 [3] [nM] | SMILES | IC50 (HB4a erbB-2 cells; [5]) [nM] | IC50 (HB4a ras cells; [5]) [nM] | other results
1900 | 140 | 2700 | c1ccc(COc2cc3c(Nc4ccc5c(cnn5Cc5ccccc5)c4)ncnc3cn2)cc1 [Example 33, (1-Benzyl-1H-indazolyl-5-yl)-(6-benzyloxy-pyrido[3,4-d]pyrimidin-4-yl)-amine Hydrochloride] | > 50000 | 50000 | –
54 | 29 | – | CCN(C)c1cc2c(Nc3ccc4c(cnn4Cc4ccccc4)c3)ncnc2cn1 [Example 26, N4-(1-Benzyl-1H-indazol-5-yl)-N6-ethyl-N6-methyl-pyrido[3,4-d]pyrimidine-4.6-diamine] | – | – | IC50 (HB4a erbB-2 cells; [4]): 150 nM; IC50 (HB4a ras cells; [4]): 8900 nM
– | 2 | 190 | CC(C)NC(=O)CN1CCN(c2cc3c(Nc4ccc5c(cnn5Cc5ccccc5)c4)ncnc3cn2)CC1 [Example 27, 2-(4-(4-(1-Benzyl-1H-indazol-5-ylamino)-pyrido[3,4-d]pyrimidin-6-yl)-piperazin-1-yl)-N-isopropyl-acetamide] | 380 | 21000 | –
– | 4 | 170 | O=C(CN1CCN(c2cc3c(Nc4ccc5c(cnn5Cc5ccccc5)c4)ncnc3cn2)CC1)N1CCOCC1 [Example 28, 2-(4-(4-(1-Benzyl-1H-indazol-5-ylamino)-pyrido[3,4-d]pyrimidin-6-yl)-piperazin-1-yl)-1-morpholin-4-yl-ethanone] | 590 | 28000 | –
930 | 330 | 1900 | CN(C)c1cc2c(Nc3ccc4c(cnn4Cc4ccc(O)cc4)c3)ncnc2cn1 [Example 38, N4-[1-(4-Hydroxybenzyl)-1H-indazol-5-yl)-N6,N6-dimethyl-pyrido[3,4-d]pyrimidine-4,6-diamine] | 6900 | 50000 | –
1600 | – | – | O=C(O)c1ccc(-c2cc3c(Nc4ccc5c(cnn5Cc5ccccc5)c4)ncnc3cn2)o1 [Example 35, 5-[4-(1-Benzyl-1H-indazol-5-ylamino)-pyrido-[3,4-d]pyrimidin-6-yl]-furan-2-carboxylic Acid Hydrochloride] | 27000 | > 50000 | –
31 | – | – | c1ccc(Cn2ncc3cc(Nc4ncnc5cnc(-n6ccnn6)cc45)ccc32)cc1 [Example 23] | – | – | IC50 (HB4a erbB-2 cells; [4]): 250 nM; IC50 (HB4a ras cells; [4]): 22000 nM
– | 20 | 140 | c1ccc(Cn2ncc3cc(Nc4ncnc5cnc(N6CCCC6)cc45)ccc32)cc1 [Example 24, (1-Benzyl-1H-indazol-5-yl)-(6-pyrrolidin-1-yl-pyrido[3,4-d]pyrimidin-4-yl)-amine] | 810 | 50000 | IC50 (BT474 cells; Homo sapiens, BT-474, 96 h): 460 nM; IC50 (HN5 cells): 900 nM
1600 | – | – | CS(=O)(=O)CCNC(=O)c1ccc(-c2cc3c(Nc4ccc5c(cnn5Cc5ccccc5)c4)ncnc3cn2)o1 [Example 36, 5-[4-(1-benzyl-1H-indazol-5-ylamino)-pyrido-[3,4-d]pyrimidin-6-yl]-furan-2-carboxylic Acid 2-methanesulphonyl-ethylamide Hydrochloride] | 3100 | > 50000 | –
2 | 2 | 9600 | Cc1nnc(-c2cc3c(Nc4ccc5c(cnn5Cc5cccc(F)c5)c4)ncnc3cn2)o1 [Example 30, (1-(3-Fluoro-benzyl)-1H-indazol-5-yl)-(6-(5-methyl-1,3,4-oxadiazol-2-yl)-pyrido[3,4-d]pyrimidin-4-yl)-amine Hydrochloride] | 2900 | 26000 | –
